Test results from paper PMC10216305, “Introduction of a Polyethylene Glycol Linker Improves Uptake of ^67Cu-NOTA-Conjugated Lactam-Cyclized Alpha-Melanocyte-Stimulating Hormone Peptide in Melanoma” (Cancers, 2023).
Positions of bridges follow the written chain, without caps; N, C: chain ends. Non-standard residues stand in square brackets, D forms with d. Residues, ends and D or L forms follow the SMILES beside them. *: point of attachment. NOTA = O=C(O)CN1CCN(CC(=O)O)CCN(CC(=O)*)CC1; Nle = CCCC[C@H](N)C(=O)O

Assay: in vivo
Set-up: species or system mice
Settings: C57, mouse, iv, total radioactivity
Description: All animal studies were conducted in compliance with Institutional Animal Care and Use Committee approval. C57 mice were purchased from Charles River Laboratory (Wilmington, NC). B16/F10 melanoma-bearing C57 mice were generated according to our previous publication. Each melanoma-bearing mouse was injected with 0.037 MBq of ^67Cu-NOTA-PEG2Nle-CycMSHhex or ^67Cu-NOTA-GGNle-CycMSHhex via the tail vein. The tumor uptake specificity of ^67Cu-NOTA-PEG2Nle-CycMSHhex and ^67Cu-NOTA-GGNle-CycMSHhex was determined by co-injecting 10 μg (6.07 nmol) of unlabeled NDP-MSH. Mice were sacrificed at 0.5, 2, 4, and 24 h post-injection, and tumors and organs of interest were harvested, weighed, and counted. The blood value was taken as 6.5% of the whole-body weight.

[1] = 0.037 MBq, Kidneys uptake (renal uptake)
[2] = 0.037 MBq, Normal organ uptake, except for kidney uptake
[3] = 0.037 MBq, Uptake ratio Tumor/blood
[4] = 0.037 MBq, Uptake ratio Tumor/kidney
[5] = 0.037 MBq, Uptake ratio Tumor/liver
[6] = 0.037 MBq, Uptake ratio Tumor/lung
[7] = 0.037 MBq, Uptake ratio Tumor/muscle
[8] = 0.037 MBq, Tumor/liver ratio as times the tumor/liver ratio of ^67Cu-NOTA-GGNle-CycMSHhex

SMILES: CCCC[C@H](NC(=O)CNC(=O)CNC(=O)CN1CCN(CC(=O)O)CCN(CC(=O)O)CC1)C(=O)N[C@H]1CC(=O)NCCCC[C@@H](C(N)=O)NC(=O)[C@H](Cc2c[nH]c3ccccc23)NC(=O)[C@H](CCCNC(=N)N)NC(=O)[C@@H](Cc2ccccc2)NC(=O)[C@H](Cc2c[nH]cn2)NC1=O [^67Cu-NOTA-GGNle-CycMSHhex, ^67Cu-NOTA-GlyGlyNle-CycMSHhex, metal not drawn] ({NOTA}-GG[Nle]DH[dF]RWK-NH2; lactam 4-9)
- tissue uptake dose at 0.5 h (0.037 MBq): 1.46 ± 0.49 %ID
- tissue uptake dose at 2 h (0.037 MBq): 1.3 ± 0.27 %ID
- tissue uptake dose at 4 h (0.037 MBq): 2.7 ± 0.26 %ID
- tissue uptake dose at 24 h (0.037 MBq): 0.94 ± 0.32 %ID
- tissue uptake at 0.5 h (0.037 MBq, Blood uptake): 1.22 ± 0.08 %ID/g
- tissue uptake at 4 h (0.037 MBq, Blood uptake): 0.06 ± 0.07 %ID/g
- tissue uptake at 0.5 h (0.037 MBq, Bone uptake): 0.68 ± 0.1 %ID/g
- tissue uptake at 4 h (0.037 MBq, Bone uptake): 0.06 ± 0.06 %ID/g
- tissue uptake at 4 h (0.037 MBq, Brain uptake): 0.02 ± 0.03 %ID/g
- tissue uptake at 24 h (0.037 MBq, Brain uptake): 0.02 ± 0.02 %ID/g
- tissue uptake at 0.5 h [1]: 7.18 ± 2.63 %ID/g
- tissue uptake at 2 h [1]: 5.08 ± 1.52 %ID/g
- tissue uptake at 4 h [1]: 4.21 ± 0.92 %ID/g
- tissue uptake at 24 h [1]: 1.19 ± 0.28 %ID/g
- tissue uptake at 0.5 h (0.037 MBq, Liver uptake): 1.15 ± 0.07 %ID/g
- tissue uptake at 2 h (0.037 MBq, Liver uptake): 1.49 ± 0.56 %ID/g
- tissue uptake at 24 h (0.037 MBq, Liver uptake): 0.82 ± 0.12 %ID/g
- tissue uptake at 2 h [2]: < 2 %ID/g
- tissue uptake at 2 h (0.037 MBq, Pancreas uptake): 0.12 ± 0.08 %ID/g
- tissue uptake at 24 h (0.037 MBq, Pancreas uptake): 0.02 ± 0.01 %ID/g
- tissue uptake at 24 h (0.037 MBq, Skin uptake): 0.02 ± 0.01 %ID/g
- tissue uptake at 0.5 h (0.037 MBq, Spleen uptake): 0.52 ± 0.32 %ID/g
- tissue uptake at 4 h (0.037 MBq, Spleen uptake): 0.12 ± 0.08 %ID/g
- tissue uptake at 0.5 h (0.037 MBq, Stomach uptake): 1.53 ± 0.53 %ID/g
- tissue uptake at 2 h (0.037 MBq, Stomach uptake): 0.81 ± 0.14 %ID/g
- tissue uptake at 0.5 h (0.037 MBq, Tumor uptake): 16.6 ± 1.4 %ID/g
- tissue uptake at 4 h (0.037 MBq, Tumor uptake): 8.79 ± 1.31 %ID/g
- tissue to tissue ratio at 0.5 h [3]: 13.6
- tissue to tissue ratio at 2 h [3]: 389
- tissue to tissue ratio at 4 h [3]: 146
- tissue to tissue ratio at 24 h [3]: 492
- tissue to tissue ratio at 0.5 h [4]: 2.31
- tissue to tissue ratio at 2 h [4]: 2.29
- tissue to tissue ratio at 4 h [4]: 2.09
- tissue to tissue ratio at 24 h [4]: 4.13
- tissue to tissue ratio at 0.5 h [5]: 14.4
- tissue to tissue ratio at 2 h [5]: 7.83
- tissue to tissue ratio at 4 h [5]: 8.62
- tissue to tissue ratio at 24 h [5]: 6
- tissue to tissue ratio at 0.5 h [6]: 30.7
- tissue to tissue ratio at 2 h [6]: 28.4
- tissue to tissue ratio at 4 h [6]: 23.8
- tissue to tissue ratio at 24 h [6]: 18.2
- tissue to tissue ratio at 0.5 h [7]: 32.5
- tissue to tissue ratio at 2 h [7]: 292
- tissue to tissue ratio at 4 h [7]: 879
- tissue to tissue ratio at 24 h [7]: 492
- tissue uptake dose at 2 h: 1.48 ± 0.17 %ID
- tissue to tissue ratio at 2 h (Uptake ratio Tumor/kidney): 0.19
- tissue to tissue ratio at 2 h (Uptake ratio Tumor/liver): 0.92
- tissue to tissue ratio at 2 h (Uptake ratio Tumor/lung): 2.44

SMILES: CCCC[C@H](NC(=O)COCCOCCNC(=O)CN1CCN(CC(=O)O)CCN(CC(=O)O)CC1)C(=O)N[C@H]1CC(=O)NCCCC[C@@H](C(N)=O)NC(=O)[C@H](Cc2c[nH]c3ccccc23)NC(=O)[C@H](CCCNC(=N)N)NC(=O)[C@@H](Cc2ccccc2)NC(=O)[C@H](Cc2c[nH]cn2)NC1=O [^67Cu-NOTA-PEG2Nle-CycMSHhex, ^67Cu-1,4,7-triazacyclononane-1,4,7-triyl-triacetic acid-polyethylene glycol-Nle-c[Asp-His-DPhe-Arg-Trp-Lys]-CONH2, metal not drawn]
- tissue uptake dose at 0.5 h (0.037 MBq): 0.83 ± 0.09 %ID
- tissue uptake dose at 2 h (0.037 MBq): 0.95 ± 0.16 %ID
- tissue uptake dose at 24 h (0.037 MBq): 0.77 ± 0.12 %ID
- tissue uptake at 0.5 h (0.037 MBq, Blood uptake): 0.63 ± 0.26 %ID/g
- tissue uptake at 0.5 h (0.037 MBq, Bone uptake): 0.6 ± 0.35 %ID/g
- tissue uptake at 0.5 h (0.037 MBq, Brain uptake): 0.04 ± 0.02 %ID/g
- tissue uptake at 24 h (0.037 MBq, Brain uptake): 0.04 ± 0.03 %ID/g
- tissue uptake at 0.5 h (0.037 MBq, Heart uptake): 0.58 ± 0.18 %ID/g
- tissue uptake at 2 h (0.037 MBq, Heart uptake): 0.79 ± 0.06 %ID/g
- tissue uptake at 4 h (0.037 MBq, Heart uptake): 0.34 ± 0.08 %ID/g
- tissue uptake at 0.5 h [1]: 6.43 ± 1.31 %ID/g
- tissue uptake at 2 h [1]: 6.34 ± 1.63 %ID/g
- tissue uptake at 4 h [1]: 2.6 ± 0.79 %ID/g
- tissue uptake at 0.5 h (0.037 MBq, Liver uptake): 0.95 ± 0.19 %ID/g
- tissue uptake at 2 h (0.037 MBq, Liver uptake): 1.09 ± 0.14 %ID/g
- tissue uptake at 4 h (0.037 MBq, Liver uptake): 1.41 ± 0.26 %ID/g
- tissue uptake at 24 h (0.037 MBq, Liver uptake): 0.84 ± 0.15 %ID/g
- tissue uptake at 0.5 h (0.037 MBq, Lung uptake): 0.76 ± 0.16 %ID/g
- tissue uptake at 4 h (0.037 MBq, Lung uptake): 0.62 ± 0.18 %ID/g
- tissue uptake at 0.5 h (0.037 MBq, Muscle uptake): 0.48 ± 0.12 %ID/g
- tissue uptake at 2 h [2]: < 2 %ID/g
- tissue uptake at 4 h [2]: < 2.6 %ID/g
- tissue uptake at 0.5 h (0.037 MBq, Skin uptake): 1.77 ± 0.28 %ID/g
- tissue uptake at 4 h (0.037 MBq, Skin uptake): 0.18 ± 0.07 %ID/g
- tissue uptake at 0.5 h (0.037 MBq, Spleen uptake): 0.37 ± 0.1 %ID/g
- tissue uptake at 0.5 h (0.037 MBq, Stomach uptake): 1.13 ± 0.36 %ID/g
- tissue uptake at 0.5 h (0.037 MBq, Tumor uptake): 8.83 ± 2.19 %ID/g
- tissue uptake at 4 h (0.037 MBq, Tumor uptake): 24.1 ± 1.83 %ID/g
- tissue uptake at 24 h (0.037 MBq, Tumor uptake): 9.13 ± 1.66 %ID/g
- tissue to tissue ratio at 2 h [8]: 3.3
- tissue to tissue ratio at 4 h [8]: 2
- tissue to tissue ratio at 24 h [8]: 1.8
- tissue to tissue ratio at 4 h [3]: 482
- tissue to tissue ratio at 24 h [3]: 456
- tissue to tissue ratio at 0.5 h [4]: 1.37
- tissue to tissue ratio at 2 h [4]: 4.41
- tissue to tissue ratio at 4 h [4]: 9.27
- tissue to tissue ratio at 24 h [4]: 10.1
- tissue to tissue ratio at 0.5 h [5]: 9.29
- tissue to tissue ratio at 2 h [5]: 25.7
- tissue to tissue ratio at 4 h [5]: 17.1
- tissue to tissue ratio at 0.5 h [6]: 11.6
- tissue to tissue ratio at 2 h [6]: 52.8
- tissue to tissue ratio at 4 h [6]: 38.9
- tissue to tissue ratio at 24 h [6]: 26.1
- tissue to tissue ratio at 0.5 h [7]: 18.4
- tissue to tissue ratio at 2 h [7]: 34.5
- tissue to tissue ratio at 4 h [7]: 803
- tissue to tissue ratio at 24 h [7]: 913
- tissue uptake dose at 2 h: 2.09 ± 0.96 %ID
- tissue to tissue ratio at 2 h (Uptake ratio Tumor/kidney): 0.34
- tissue to tissue ratio at 2 h (Uptake ratio Tumor/liver): 0.98
- tissue to tissue ratio at 2 h (Uptake ratio Tumor/lung): 2.44
- tissue to tissue ratio at 2 h (Uptake ratio Tumor/muscle): 166
